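Interpolation was linear, between the two tested concentrations surrounding the appropriate level; five concentrations were tested over 48 hours in 96-well plates. The concentration for full growth arrest is given as TGI.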
These compounds were tested on NCI-H460 lung (assay: DTP human tumour cell line panel, 48 h).
For `CCCCCCCCC(O)c1ccc(/C=C\C(O)CCCC(=O)O)s1` (configuration not stated), the TGI was greater than 100 µM. In the case of `N#CCc1cccc(CC#N)c1Br`, the TGI is reported as greater than 100 µM. In the case of `COC(=O)c1c(O)ccc2c1c1c(n2Cc2cc(OC)cc(OC)c2)C(=O)c2ccccc2C1=O`, the TGI is reported as 19 µM. Work on `COc1cc([C@@H]2c3cc4c(cc3[C@@H](NCc3cccc(C#N)c3)C3COC(=O)[C@@H]32)OCO4)cc(OC)c1O` (some centres not stated) yielded a TGI of 2.09 µM.

What follows are compounds tested on XF 498 CNS (assay: DTP human tumour cell line panel, 48 h).
Compound `CCCCCCCCCCCCCCCc1nc(=S)[nH][nH]1` has a TGI greater than 100 µM. For `CCCCCCCCC(O)c1ccc(/C=C\C(O)CCCC(=O)O)s1` (configuration not stated), the TGI was greater than 100 µM. `N#CCc1cccc(CC#N)c1Br` was tested, and the TGI was greater than 100 µM.

What follows are compounds tested on MCF7 breast (assay: DTP human tumour cell line panel, 48 h).
Compound `CCOP(=O)(O)C(Nc1ccc(N=Nc2ccccc2)cc1)c1cccc(C(Nc2ccc(N=Nc3ccccc3)cc2)P(=O)(O)OCC)c1` (configuration not stated) has a TGI greater than 100 µM. With `COC(=O)c1c(O)ccc2c1c1c(n2Cc2cc(OC)cc(OC)c2)C(=O)c2ccccc2C1=O` the TGI was 45.3 µM.

The compounds below were run on K-562 leukemia (assay: DTP human tumour cell line panel, 48 h).
`CCCCCCCCCCCCCCCc1nc(=S)[nH][nH]1` gave a TGI greater than 100 µM. In the case of `O=C1OC(=O)C([Se]c2ccccc2)=C1[Se]c1ccccc1`, the TGI is reported as greater than 100 µM. `CCOP(=O)(O)C(Nc1ccc(N=Nc2ccccc2)cc1)c1cccc(C(Nc2ccc(N=Nc3ccccc3)cc2)P(=O)(O)OCC)c1` (configuration not stated) was tested, and the TGI was 40 µM. For `CCCCCCCCC(O)c1ccc(/C=C\C(O)CCCC(=O)O)s1` (configuration not stated), the TGI was greater than 100 µM. Compound `N#CCc1cccc(CC#N)c1Br` has a TGI greater than 100 µM. `COC(=O)c1c(O)ccc2c1c1c(n2Cc2cc(OC)cc(OC)c2)C(=O)c2ccccc2C1=O` gave a TGI greater than 100 µM. `COc1cc([C@@H]2c3cc4c(cc3[C@@H](NCc3cccc(C#N)c3)C3COC(=O)[C@@H]32)OCO4)cc(OC)c1O` (some centres not stated) gave a TGI of 25.4 µM.

Each compound was assayed on MALME-3M melanoma (assay: DTP human tumour cell line panel, 48 h).
With `CCCCCCCCCCCCCCCc1nc(=S)[nH][nH]1` the TGI was greater than 100 µM. With `O=C1OC(=O)C([Se]c2ccccc2)=C1[Se]c1ccccc1` the TGI was greater than 100 µM. With `CCOP(=O)(O)C(Nc1ccc(N=Nc2ccccc2)cc1)c1cccc(C(Nc2ccc(N=Nc3ccccc3)cc2)P(=O)(O)OCC)c1` (configuration not stated) the TGI was greater than 100 µM. With `CCCCCCCCC(O)c1ccc(/C=C\C(O)CCCC(=O)O)s1` (configuration not stated) the TGI was greater than 100 µM. `N#CCc1cccc(CC#N)c1Br` was tested, and the TGI was greater than 100 µM. `COC(=O)c1c(O)ccc2c1c1c(n2Cc2cc(OC)cc(OC)c2)C(=O)c2ccccc2C1=O` was tested, and the TGI was 22.4 µM. `COc1cc([C@@H]2c3cc4c(cc3[C@@H](NCc3cccc(C#N)c3)C3COC(=O)[C@@H]32)OCO4)cc(OC)c1O` (some centres not stated) showed a TGI of 9.58 µM.

What follows are compounds tested on EKVX NSCLC (assay: DTP human tumour cell line panel, 48 h).
`CCCCCCCCCCCCCCCc1nc(=S)[nH][nH]1` was tested, and the TGI was greater than 100 µM. In the case of `O=C1OC(=O)C([Se]c2ccccc2)=C1[Se]c1ccccc1`, the TGI is reported as greater than 100 µM. With `CCOP(=O)(O)C(Nc1ccc(N=Nc2ccccc2)cc1)c1cccc(C(Nc2ccc(N=Nc3ccccc3)cc2)P(=O)(O)OCC)c1` (configuration not stated) the TGI was greater than 100 µM. `CCCCCCCCC(O)c1ccc(/C=C\C(O)CCCC(=O)O)s1` (configuration not stated) was tested, and the TGI was greater than 100 µM. Work on `N#CCc1cccc(CC#N)c1Br` yielded a TGI greater than 100 µM. With `COC(=O)c1c(O)ccc2c1c1c(n2Cc2cc(OC)cc(OC)c2)C(=O)c2ccccc2C1=O` the TGI was 51.5 µM. Work on `COc1cc([C@@H]2c3cc4c(cc3[C@@H](NCc3cccc(C#N)c3)C3COC(=O)[C@@H]32)OCO4)cc(OC)c1O` (some centres not stated) yielded a TGI of 6.58 µM.

These compounds were tested on SF-268 CNS (assay: DTP human tumour cell line panel, 48 h).
`CCCCCCCCCCCCCCCc1nc(=S)[nH][nH]1` showed a TGI greater than 100 µM. For `O=C1OC(=O)C([Se]c2ccccc2)=C1[Se]c1ccccc1`, the TGI was greater than 100 µM. `CCOP(=O)(O)C(Nc1ccc(N=Nc2ccccc2)cc1)c1cccc(C(Nc2ccc(N=Nc3ccccc3)cc2)P(=O)(O)OCC)c1` (configuration not stated) gave a TGI greater than 100 µM. `CCCCCCCCC(O)c1ccc(/C=C\C(O)CCCC(=O)O)s1` (configuration not stated) was tested, and the TGI was greater than 100 µM. `N#CCc1cccc(CC#N)c1Br` was tested, and the TGI was greater than 100 µM. Compound `COC(=O)c1c(O)ccc2c1c1c(n2Cc2cc(OC)cc(OC)c2)C(=O)c2ccccc2C1=O` has a TGI of 41.2 µM. Compound `COc1cc([C@@H]2c3cc4c(cc3[C@@H](NCc3cccc(C#N)c3)C3COC(=O)[C@@H]32)OCO4)cc(OC)c1O` (some centres not stated) has a TGI greater than 100 µM.

What follows are compounds tested on RXF-631 renal (assay: DTP human tumour cell line panel, 48 h).
For `O=C1OC(=O)C([Se]c2ccccc2)=C1[Se]c1ccccc1`, the TGI was greater than 100 µM. Work on `COc1cc([C@@H]2c3cc4c(cc3[C@@H](NCc3cccc(C#N)c3)C3COC(=O)[C@@H]32)OCO4)cc(OC)c1O` (some centres not stated) yielded a TGI of 4.64 µM.

Each compound was assayed on ACHN renal (assay: DTP human tumour cell line panel, 48 h).
In the case of `CCCCCCCCCCCCCCCc1nc(=S)[nH][nH]1`, the TGI is reported as greater than 100 µM. With `O=C1OC(=O)C([Se]c2ccccc2)=C1[Se]c1ccccc1` the TGI was greater than 100 µM. `CCOP(=O)(O)C(Nc1ccc(N=Nc2ccccc2)cc1)c1cccc(C(Nc2ccc(N=Nc3ccccc3)cc2)P(=O)(O)OCC)c1` (configuration not stated) was tested, and the TGI was greater than 100 µM. `CCCCCCCCC(O)c1ccc(/C=C\C(O)CCCC(=O)O)s1` (configuration not stated) showed a TGI greater than 100 µM. For `N#CCc1cccc(CC#N)c1Br`, the TGI was greater than 100 µM. `COC(=O)c1c(O)ccc2c1c1c(n2Cc2cc(OC)cc(OC)c2)C(=O)c2ccccc2C1=O` was tested, and the TGI was 56.1 µM. Compound `COc1cc([C@@H]2c3cc4c(cc3[C@@H](NCc3cccc(C#N)c3)C3COC(=O)[C@@H]32)OCO4)cc(OC)c1O` (some centres not stated) has a TGI of 1.58 µM.

These compounds were tested on M14 melanoma (assay: DTP human tumour cell line panel, 48 h).
For `CCCCCCCCCCCCCCCc1nc(=S)[nH][nH]1`, the TGI was greater than 100 µM.

Reference: PubChem BioAssay (NCI)
